Results from patent US9937178B2, “Methods of identifying and using MDM2 inhibitors” (DUKE UNIVERSITY, priority 2011, dated 2018).

Key:
PP5 = experiment: Immunoblot of PP5 protein levels; type: cell-based; details: 1 μM lapatinib
Protocol: FIG. 7 is a set of photographs and graphs showing PP5 stability and post-cytochrome c protection in lapatinib-resistant cells. FIG. 7A is an immunoblot for caspase-9 (cleaved and non-cleaved) and cleaved caspase-3 (C9 and C3, respectively) showing rBT474 cells cultured in the absence or presence of 1 μM lapatinib for one week, as compared to BT474 cells which were maintained without lapatinib. Cytosolic lysates prepared from BT474 or rBT474 were incubated with 1 mM dATP and various amounts of cytochrome c (CC). FIG. 7B is a set of graphs showing Caspase 3 activity in the indicated cell lysates over time. Caspase-3 activity was assayed by measuring cleavage of DEVD-pNA following incubation of the cell lysates with 1 mM dATP and various concentrations of cytochrome c. FIG. 7C is an autoradiograph of ^32P and an immunoblot showing the percentage of the protein phosphorylated. In the presence of [γ-^32P]ATP, recombinant His-tagged HSP90β proteins (wild type and the indicated mutants) on nickel beads were incubated with the HSP90β-targeted kinase casein kinase 2. FIG. 7D is an autoradiograph and corresponding immunoblot showing BT474 or rBT474 cells after being cultured in the absence or presence of 1 μM lapatinib for 24 hours in the presence of z-VAD. Recombinant His-tagged HSP90β protein on nickel beads was incubated with the cell lysates in the presence of [γ-^32P]ATP. FIG. 7E is an immunoblot for phospho-Hsp90β (Ser226) and total HSP90β at various time points. […] FIG. 7F is a set of graphs showing FACS analysis for the phosphorylation status of Hsp90β (Ser255). BT474 or rBT474 cells cultured in the presence of 1 μM lapatinib for 24 hours were fixed with formaldehyde and incubated with phospho-Hsp90β (Ser255) antibody followed by an Alexa488-conjugated secondary antibody. FIG. 7G is an immunoblot for PP5 and actin at the indicated time points. BT474 and rBT474 (left) or AU565 and rAU565 cells (right) were treated with 1 μM lapatinib. FIG. 7H is an autoradiograph of immunoprecipitated FLAG-PP5 using an anti-FLAG agarose. […]

[1] = test system: caspase-9 / caspase-3 activation; experiment: Cytochrome c-induced caspase activation in cell lysates; type: cell-based; details: lysates of resistant cells cultured in the presence of lapatinib
HER2 = HER2 (Homo sapiens, UniProt P04626); experiment: Immunoblot of phospho-HER2 in lapatinib-treated cells; type: cell-based; details: 1 μM lapatinib, 24 hours, z-VAD 50 μM; even in resistant cells
Chain of HER2 (P04626 23-1255): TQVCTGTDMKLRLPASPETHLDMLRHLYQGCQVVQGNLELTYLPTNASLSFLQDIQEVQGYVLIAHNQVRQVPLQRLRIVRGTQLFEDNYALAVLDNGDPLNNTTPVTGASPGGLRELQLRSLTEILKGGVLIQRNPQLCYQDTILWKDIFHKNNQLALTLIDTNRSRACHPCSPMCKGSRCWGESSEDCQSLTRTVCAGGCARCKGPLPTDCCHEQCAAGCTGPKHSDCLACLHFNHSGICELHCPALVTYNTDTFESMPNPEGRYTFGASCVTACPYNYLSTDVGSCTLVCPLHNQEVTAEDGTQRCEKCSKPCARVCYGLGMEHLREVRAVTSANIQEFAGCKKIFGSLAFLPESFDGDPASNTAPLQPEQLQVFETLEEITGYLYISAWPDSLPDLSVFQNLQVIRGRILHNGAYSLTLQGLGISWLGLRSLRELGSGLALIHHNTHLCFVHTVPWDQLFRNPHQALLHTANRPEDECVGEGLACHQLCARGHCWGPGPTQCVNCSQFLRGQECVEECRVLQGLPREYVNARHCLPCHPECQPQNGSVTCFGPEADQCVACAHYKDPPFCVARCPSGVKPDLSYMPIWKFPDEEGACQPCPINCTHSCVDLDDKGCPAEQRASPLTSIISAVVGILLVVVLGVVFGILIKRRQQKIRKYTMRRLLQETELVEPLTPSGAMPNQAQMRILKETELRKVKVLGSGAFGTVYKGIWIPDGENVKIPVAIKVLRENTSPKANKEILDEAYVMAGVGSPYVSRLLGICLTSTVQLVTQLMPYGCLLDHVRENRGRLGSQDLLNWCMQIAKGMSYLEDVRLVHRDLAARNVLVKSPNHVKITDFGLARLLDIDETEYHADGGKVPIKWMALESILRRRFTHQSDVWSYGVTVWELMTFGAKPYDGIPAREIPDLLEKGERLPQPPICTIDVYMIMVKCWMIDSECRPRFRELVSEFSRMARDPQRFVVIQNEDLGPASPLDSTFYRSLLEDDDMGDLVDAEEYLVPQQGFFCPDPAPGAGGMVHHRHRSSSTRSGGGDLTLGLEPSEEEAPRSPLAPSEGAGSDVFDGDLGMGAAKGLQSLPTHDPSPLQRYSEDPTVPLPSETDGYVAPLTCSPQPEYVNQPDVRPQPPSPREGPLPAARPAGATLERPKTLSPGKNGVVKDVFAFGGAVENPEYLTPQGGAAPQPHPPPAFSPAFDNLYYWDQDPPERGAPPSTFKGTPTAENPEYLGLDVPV

AU565-derived tumor = experiment: AU565 mammary fat pad xenograft; type: in vivo, mouse; details: 100 mg/kg each drug, twice daily by oral gavage
Akt = experiment: Immunoblot of phospho-AKT in lapatinib-treated cells; type: cell-based; details: sensitive and resistant cells, 1 μM lapatinib, 50 μM z-VAD
BT474 xenografts = experiment: BT474 mammary fat pad xenograft; details: 100 mg/kg each drug, twice daily by oral gavage
CAS mRNA = experiment: Quantitative real-time PCR of CAS mRNA; type: cell-based; details: sensitive or resistant cells
rAU565-derived tumor = experiment: rAU565 mammary fat pad xenograft; details: 100 mg/kg each drug, twice daily by oral gavage
Mcl-1 = Mcl-1 ubiquitylation (FLAG-Mcl-1 / HA-Ub immunoprecipitation); type: cell-based; details: 1 μM lapatinib, 24 hours
Protocol: FIG. 3 is a set of photographs showing that Mcl-1 is stabilized in lapatinib-resistant cells. […] FIG. 3B is a set of immunoblots showing the levels of HER2 and phospho-HER2 in untreated cells and cells treated with lapatinib. Cells were treated with or without lapatinib (1 μM) for 24 hours in the presence of the caspase inhibitor z-VAD (50 μM). The cells were harvested and cell lysates were immunoblotted using antibodies against phospho-HER2 (Y877) and total HER2. FIG. 3C is an immunoblot for phospho-AKT (T308) and total AKT. BT474 and rBT474 cells were treated with 1 μM lapatinib in the presence of 50 μM z-VAD. At the indicated time points, the cells were harvested and immunoblotted. FIG. 3D is an immunoblot for phospho-Erl1/2(T202/Y204) and total Erk1/2. BT474 and rBT474 cells were treated with 1 μM lapatinib in the presence of 50 μM z-VAD. At the indicated time points, the cells were harvested and immunoblotted. […] FIG. 3F is an autoradiograph showing the ^35[S] radioactivity in lysates containing ^35[S]-Mcl-1 at the indicated time points. ^35[S]-labeled Mcl-1 protein was incubated in cell-free lysates prepared from BT474 and rBT474 cells (top) or SKBR3 and rSKBR3 cells (bottom). […] FLAG-Mcl-1 was retrieved by immunoprecipitation using anti-flag agarose, and Mcl-1 ubiquitylation was analyzed by immunoblotting for HA (*non-specific band, **IgG heavy chain). […]

HER2 tyrosine autophosphorylation (HER2): inhibited
Compound: CS(=O)(=O)CCNCc1ccc(-c2ccc3ncnc(Nc4ccc(OCc5cccc(F)c5)c(Cl)c4)c3c2)o1 [lapatinib]
PP5 levels (PP5; resistant cells): unaltered | PP5 levels (PP5; sensitive cells): gradual decrease | cytochrome c-induced caspase activation [1]: strong defects in caspase activation | AU565-derived tumor growth (AU565-derived tumor): substantially inhibited | phosphorylation of Akt (Akt): attenuated | growth of BT474-derived tumors (BT474 xenografts): significantly suppressed | CAS mRNA levels (CAS mRNA): did not cause a reduction | rAU565-derived tumor growth (rAU565-derived tumor): not rAU565-derived tumor growth | Mcl-1 ubiquitylation (Mcl-1; SKBR3 cells): enhanced | Mcl-1 ubiquitylation (Mcl-1; rSKBR3 cells): diminished
